Results as given in patent US20060141496A1, “Method of screening substance interacting with ABC protein” (priority 2003, published 2006).

biological target: T1, human P-glycoprotein (Pgp or MDR 1) expressing membrane (Homo sapiens, UniProt P08183); assay: [3H] ADP binding amount by vanadate method, suction cleaning on 96-well glass filter, P-glycoprotein-expressing membrane; format: biochemical; details: substrate 0.05 mM; reaction time 5 minutes; 37° C.; background of control membrane subtracted; FIG. 4
T1 construct: purchased Daiichi Pure Chemicals Co. No. 453228; host or cells: Sf9 insect cell membrane
T1 sequence (P08183 whole entry): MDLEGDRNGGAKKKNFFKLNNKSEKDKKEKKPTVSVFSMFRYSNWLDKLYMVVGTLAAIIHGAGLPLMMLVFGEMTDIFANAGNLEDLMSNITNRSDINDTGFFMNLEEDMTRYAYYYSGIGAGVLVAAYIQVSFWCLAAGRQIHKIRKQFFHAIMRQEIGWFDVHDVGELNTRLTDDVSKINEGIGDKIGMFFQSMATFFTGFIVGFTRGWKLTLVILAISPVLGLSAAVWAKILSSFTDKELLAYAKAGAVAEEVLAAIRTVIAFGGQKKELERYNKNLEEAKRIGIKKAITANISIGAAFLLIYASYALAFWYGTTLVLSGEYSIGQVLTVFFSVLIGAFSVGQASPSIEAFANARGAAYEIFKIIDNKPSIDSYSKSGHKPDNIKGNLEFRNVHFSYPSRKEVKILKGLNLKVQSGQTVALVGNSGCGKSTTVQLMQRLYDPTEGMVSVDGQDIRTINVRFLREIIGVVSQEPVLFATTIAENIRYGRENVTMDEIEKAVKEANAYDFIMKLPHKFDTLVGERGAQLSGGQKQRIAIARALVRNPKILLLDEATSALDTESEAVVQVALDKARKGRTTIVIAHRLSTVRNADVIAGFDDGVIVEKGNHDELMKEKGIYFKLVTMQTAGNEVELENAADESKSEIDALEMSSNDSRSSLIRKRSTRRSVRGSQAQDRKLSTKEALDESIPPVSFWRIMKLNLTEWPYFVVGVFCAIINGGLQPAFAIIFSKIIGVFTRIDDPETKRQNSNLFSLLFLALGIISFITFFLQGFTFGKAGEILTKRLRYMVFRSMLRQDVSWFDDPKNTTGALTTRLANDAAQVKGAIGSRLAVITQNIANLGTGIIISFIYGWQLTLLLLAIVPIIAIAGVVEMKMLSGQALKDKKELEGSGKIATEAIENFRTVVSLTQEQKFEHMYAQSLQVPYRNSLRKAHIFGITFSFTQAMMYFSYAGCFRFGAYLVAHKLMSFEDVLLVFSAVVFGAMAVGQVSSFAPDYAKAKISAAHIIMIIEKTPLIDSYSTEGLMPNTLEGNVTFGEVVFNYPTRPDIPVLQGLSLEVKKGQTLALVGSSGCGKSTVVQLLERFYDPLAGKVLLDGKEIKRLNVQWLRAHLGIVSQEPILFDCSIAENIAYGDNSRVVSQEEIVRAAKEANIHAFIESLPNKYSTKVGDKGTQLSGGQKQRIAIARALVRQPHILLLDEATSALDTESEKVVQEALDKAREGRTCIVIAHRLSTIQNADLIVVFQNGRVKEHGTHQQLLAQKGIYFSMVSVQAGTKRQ

Molecule	[3H] ADP binding activity compared to P-glycoprotein-expressing membrane without substrate
O=C1OC(c2ccc(O)c(S(=O)(=O)O)c2)(c2ccc(O)c(S(=O)(=O)O)c2)c2c(Br)c(Br)c(Br)c(Br)c21 [Bromosulfalein]	lowered significantly
COc1cccc2c1C(=O)c1c(O)c3c(c(O)c1C2=O)C[C@@](O)(C(C)=O)C[C@@H]3O[C@H]1C[C@H](N)[C@H](O)[C@H](C)O1 [Daunorubicin]	significant increase
COc1cccc2c1C(=O)c1c(O)c3c(c(O)c1C2=O)C[C@@](O)(C(=O)CO)C[C@@H]3O[C@H]1C[C@H](N)[C@H](O)[C@H](C)O1 [Doxorubicin]	significant increase
Nc1nc2ncc(CNc3ccc(C(=O)N[C@@H](CCC(=O)O)C(=O)O)cc3)nc2c(=O)[nH]1 [Folate]	significant increase

The remaining lines, values ahead:

[3H] ADP binding activity compared to P-glycoprotein-expressing membrane without substrate	Molecule
significant increase	CN(Cc1cnc2nc(N)nc(N)c2n1)c1ccc(C(=O)N[C@@H](CCC(=O)O)C(=O)O)cc1 [Methotrexate]
significant increase	CC[C@]1(O)C[C@@H]2CN(CCc3c([nH]c4ccccc34)[C@@](C(=O)OC)(c3cc4c(cc3OC)N(C)[C@H]3[C@@](O)(C(=O)OC)[C@H](OC(C)=O)[C@]5(CC)C=CCN6CC[C@]43[C@@H]65)C2)C1 [Vinbrastine]
significant increase	CC[C@]1(O)C[C@H]2CN(CCc3c([nH]c4ccccc34)[C@@](C(=O)OC)(c3cc4c(cc3OC)N(C=O)[C@H]3[C@@](O)(C(=O)OC)[C@H](OC(C)=O)[C@]5(CC)C=CCN6CC[C@]43[C@@H]65)C2)C1 [Vincristine]

biological target: T2, human MRP2 (Homo sapiens, UniProt Q92887); assay: [3H] ADP binding amount by vanadate method, human MRP2-expressing Sf9 membrane; format: biochemical; details: substrate 0.1 mM; reaction time 5 minutes; 37° C.; FIG. 6
T2 construct: made in house; host or cells: Sf9 insect cells (baculovirus, pFASTBac1)
T2 sequence (Q92887 whole entry): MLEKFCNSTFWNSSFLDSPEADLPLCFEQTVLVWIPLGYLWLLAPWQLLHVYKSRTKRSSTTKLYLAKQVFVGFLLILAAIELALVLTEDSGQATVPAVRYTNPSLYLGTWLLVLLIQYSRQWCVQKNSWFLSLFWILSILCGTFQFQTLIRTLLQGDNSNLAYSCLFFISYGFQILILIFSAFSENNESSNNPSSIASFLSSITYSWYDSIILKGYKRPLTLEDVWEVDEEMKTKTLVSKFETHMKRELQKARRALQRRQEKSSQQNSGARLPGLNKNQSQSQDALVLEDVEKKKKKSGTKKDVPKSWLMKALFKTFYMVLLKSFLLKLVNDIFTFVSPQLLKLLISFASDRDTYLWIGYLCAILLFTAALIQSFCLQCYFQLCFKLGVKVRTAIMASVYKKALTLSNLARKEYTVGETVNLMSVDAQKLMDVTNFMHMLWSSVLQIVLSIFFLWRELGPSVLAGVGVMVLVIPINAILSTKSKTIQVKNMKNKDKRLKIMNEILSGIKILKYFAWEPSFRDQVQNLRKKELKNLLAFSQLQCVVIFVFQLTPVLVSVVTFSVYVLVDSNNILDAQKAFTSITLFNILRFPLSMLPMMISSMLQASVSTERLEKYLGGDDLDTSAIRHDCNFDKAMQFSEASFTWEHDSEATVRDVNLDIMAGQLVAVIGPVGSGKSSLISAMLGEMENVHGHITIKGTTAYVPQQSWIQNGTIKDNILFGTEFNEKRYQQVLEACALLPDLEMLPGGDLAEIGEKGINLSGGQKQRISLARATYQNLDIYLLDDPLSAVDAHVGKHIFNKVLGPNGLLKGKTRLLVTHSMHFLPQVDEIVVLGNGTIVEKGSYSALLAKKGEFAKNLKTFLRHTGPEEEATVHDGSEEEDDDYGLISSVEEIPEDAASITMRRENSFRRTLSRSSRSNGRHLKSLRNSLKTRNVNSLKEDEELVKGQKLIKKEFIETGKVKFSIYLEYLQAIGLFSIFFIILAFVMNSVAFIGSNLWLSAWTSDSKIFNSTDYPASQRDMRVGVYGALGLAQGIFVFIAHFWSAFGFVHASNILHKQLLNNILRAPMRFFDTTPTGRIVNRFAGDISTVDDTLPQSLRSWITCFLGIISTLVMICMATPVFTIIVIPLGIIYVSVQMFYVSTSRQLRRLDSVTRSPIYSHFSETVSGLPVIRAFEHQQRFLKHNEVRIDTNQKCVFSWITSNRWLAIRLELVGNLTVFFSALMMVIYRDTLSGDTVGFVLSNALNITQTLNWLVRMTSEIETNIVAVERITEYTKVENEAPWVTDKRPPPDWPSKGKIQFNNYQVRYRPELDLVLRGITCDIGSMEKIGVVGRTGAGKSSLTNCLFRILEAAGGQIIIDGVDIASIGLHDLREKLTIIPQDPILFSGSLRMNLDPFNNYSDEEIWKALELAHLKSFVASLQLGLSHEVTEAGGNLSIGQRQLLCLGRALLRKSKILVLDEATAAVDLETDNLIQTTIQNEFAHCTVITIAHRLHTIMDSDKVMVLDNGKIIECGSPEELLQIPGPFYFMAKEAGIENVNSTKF

Molecule	[3H] ADP binding activity compared to MRP2-expressing membranes without substrate
O=C1OC(c2ccc(O)c(S(=O)(=O)O)c2)(c2ccc(O)c(S(=O)(=O)O)c2)c2c(Br)c(Br)c(Br)c(Br)c21 [Bromosulfalein]	increase of significant [^3H] ADP binding activity
β-estradiol-17-(β-D-glucuronide) [β-estradiol-17 (β-D-glucuronide)]	increase of significant [^3H] ADP binding activity
